Laboratory results from US11136321B2, “Tricyclic compounds” (ALIGOS THERAPEUTICS, INC., priority 2019, dated 2021).

Test system: HBV
Assay: HBV-DNA antiviral assay using HepG2.117 cells
Type: cell-based, genotype D HBV
Conditions: intracellular HBV DNA by qPCR, 3 days incubation
Procedure: The following assay procedure describes the HBV antiviral assay, using HepG2.117 cells, which carry a stably integrated genotype D HBV genome under the control of a Tet-off promoter, and intracellular HBV DNA quantification as endpoint. Cell viability is assessed in parallel by measuring the intracellular ATP content using ATPlite (Perkin Elmer).
On day 0, HepG2.117 cells (which are maintained in routine cell culture with doxycycline present in the medium at a final concentration of 1 μg/mL) were seeded in 96-well plates (white with clear bottom) at a density of 2.0×10^4 cells/well (0.1 mL/well) in medium without doxycycline to induce pgRNA transcription and subsequent formation of HBV particles. The cells were incubated at 37° C. and 5% CO2.
On day 1, medium was removed from each well, the test articles were diluted in culture medium without doxcycyline and 100 μL was added to cell culture wells (9 concentrations, 4-fold dilution). For each plate, 6 untreated (merely DMSO) wells were included. The final concentration of DMSO in the culture medium was 2%. Each plate was prepared in duplicate (one for HBV DNA extraction, one for ATPlite measurement). The cells were incubated at 37° C. and 5% CO2 for 3 days.
On day 4, cell viability was assessed using ATPlite and cell lysates were prepared for HBV DNA extraction and subsequent quantification by qPCR.
Medium was removed from each well and 100 μL of 0.33% NP-40 in H2O was added to each well. Plates were sealed, incubated at 4° C. for 5 mins, vortexed extensively and centrifuged briefly. Next, 35 μL of lysate was added to 65 μL QuickExtract DNA Extraction Solution (Epicentre) in a PCR plate for each well. PCR plate was incubated at 65° C. for 6 mins, 98° C. for 2 mins and finally cooled to 4° C. HBV DNA was then quantified by qPCR with HBV-specific primers and probes as specified in Table 1 using the Bio-Rad SSOAdvanced Universal Probes Supermix on a CFX96 machine (Bio-Rad). The PCR cycle program consisted of 95° C. for 3 mins, followed by 40 cycles at 95° C. for 10 sec and 60° C. for 30 sec.
A DNA standard was prepared by dilution of an IDT gBlock corresponding to the amplicon with concentrations ranging from 10^2 to 10^8 copies/input (i.e. per 4 μL) and used to generate a standard curve by plotting Cq values vs. HBV DNA standard concentration. The quantity of HBV DNA in each sample was determined by interpolating from the standard curve.
Cell viability was calculated as follows: % Cell viability=(luminescence value of test sample)/(average luminescence value of 2% DMSO control)×100%. HBV DNA inhibition was calculated as follows: 100−(HBV DNA copy number of test sample)/(average HBV DNA copy number of 2% DMSO control)×100%. No normalization to entecavir was required due to the excellent dynamic window of this assay. The CC50, EC50 and EC90 values were determined by dose-response curves fitted by GraphPad Prism using “log (agonist) vs. response—Variable slope”.

O=C(c1ccc(Br)cc1)N1CCc2c(n3nccc3n(-c3ccccc3)c2=O)C1 [Compound 3, 8-(4-bromobenzoyl)-4-phenyl-6,7,8,9-tetrahydropyrazolo[1,5-a]pyrido[4,3-e]pyrimidin-5(4H)-one]
EC50 (Hepatitis B virus, 72 h): > 5000 nM

O=C(c1ccc(Br)c(F)c1)N1CCc2c(n3nccc3n(-c3ccccc3)c2=O)C1 [Compound 4, 8-(4-bromo-3-fluorobenzoyl)-4-phenyl-6,7,8,9-tetrahydropyrazolo[1,5-a]pyrido[4,3-e]pyrimidin-5(4H)-one]
EC50 (Hepatitis B virus, 72 h): > 5000 nM

O=C(c1ccc(Br)c(Cl)c1)N1CCc2c(n3nccc3n(-c3ccccc3)c2=O)C1 [Compound 5, 12-(4-bromo-3-chlorobenzoyl)-7-phenyl-2,3,7,12-tetraazatricyclo[7.4.0.0^[2,6]]trideca-1(9),3,5-trien-8-one]
EC50: 500 to 5000 nM

O=C(c1ccc(Br)c(Cl)c1)N1CCc2c(n3nccc3n(Cc3ccccc3)c2=O)C1 [Compound 6, 7-benzyl-12-(4-bromo-3-chlorobenzoyl)-2,3,7,12-tetraazatricyclo[7.4.0.0^[2,6]]trideca-1(9),3,5-trien-8-one]
EC50: 500 to 5000 nM

Cc1cc2n(-c3ccccc3)c(=O)c3c(n2n1)CN(C(=O)c1ccc(Br)c(F)c1)CC3 [Compound 7, 12-(4-bromo-3-fluorobenzoyl)-4-methyl-7-phenyl-2,3,7,12-tetraazatricyclo[7.4.0.0^[2,6]]trideca-1(9),3,5-trien-8-one]
EC50: > 5000 nM

Cc1cnn2c3c(c(=O)n(-c4ccccc4)c12)CCN(C(=O)c1ccc(Br)c(F)c1)C3 [Compound 8, 12-(4-bromo-3-fluorobenzoyl)-5-methyl-7-phenyl-2,3,7,12-tetraazatricyclo[7.4.0.0^[2,6]]trideca-1(9),3,5-trien-8-one]
EC50 (Hepatitis B virus, 72 h): 500 to 5000 nM

O=C(c1ccc(Br)c(F)c1)N1CCc2c(n3ncc(Cc4ccccc4)c3n(-c3ccccc3)c2=O)C1 [Compound 9, 5-benzyl-12-(4-bromo-3-fluorobenzoyl)-7-phenyl-2,3,7,12-tetraazatricyclo[7.4.0.0^[2,6]]trideca-1(9),3,5-trien-8-one]
EC50 (Hepatitis B virus, 72 h): 100 to 500 nM

Cc1cnn2c3c(c(=O)n(-c4ccccc4)c12)CCN(C(=O)c1ccc(Br)c(Cl)c1)C3 [Compound 10, 12-(4-bromo-3-chlorobenzoyl)-5-methyl-7-phenyl-2,3,7,12-tetraazatricyclo[7.4.0.0^[2,6]]trideca-1(9),3,5-trien-8-one]
EC50 (Hepatitis B virus, 72 h): 100 to 500 nM

O=C(c1ccc(Br)c(Cl)c1)N1CCc2c(n3nc(Cc4ccccc4)cc3n(-c3ccccc3)c2=O)C1 [Compound 11, 4-benzyl-12-(4-bromo-3-chlorobenzoyl)-7-phenyl-2,3,7,12-tetraazatricyclo[7.4.0.0^[2,6]]trideca-1(9),3,5-trien-8-one]
EC50: > 5000 nM

O=C(c1ccc(Br)c(Cl)c1)N1CCc2c(n3ncc(Cc4ccccc4)c3n(-c3ccccc3)c2=O)C1 [Compound 12, 5-benzyl-12-(4-bromo-3-chlorobenzoyl)-7-phenyl-2,3,7,12-tetraazatricyclo[7.4.0.0^[2,6]]trideca-1(9),3,5-trien-8-one]
EC50 (Hepatitis B virus, 72 h): 100 to 500 nM

CC(C)c1cnn2c3c(c(=O)n(-c4ccccc4)c12)CCN(C(=O)c1ccc(Br)c(Cl)c1)C3 [Compound 13, 12-(4-bromo-3-chlorobenzoyl)-5-isopropyl-7-phenyl-2,3,7,12-tetraazatricyclo[7.4.0.0^[2,6]]trideca-1(9),3,5-trien-8-one]
EC50 (Hepatitis B virus, 72 h): 500 to 5000 nM

COc1ccc(Cn2c(=O)c3c(n4ncc(Cc5ccccc5)c24)CN(C(=O)c2ccc(Cl)c(Cl)c2)CC3)cc1 [Compound 14, 5-benzyl-12-(3,4-dichlorobenzoyl)-7-[(4-methoxyphenyl)methyl]-2,3,7,12-tetrazatricyclo [7.4.0.0^2,6] trideca-1(9),3,5-trien-8-one]
EC50 (Hepatitis B virus, 72 h): 500 to 5000 nM

CC(C)CNc1cnn2c3c(c(=O)n(-c4ccccc4)c12)CCN(C(=O)c1ccc(Cl)c(Cl)c1)C3 [Compound 15, 12-(3,4-dichlorobenzoyl)-5-(isobutylamino)-7-phenyl-2,3,7,12-tetrazatricyclo [7.4.0.0^2,6] trideca-1(9),3,5-trien-8-one]
EC50 (Hepatitis B virus, 72 h): > 5000 nM
